Measured values: the supplement of paper PMC10307832

How the values were obtained:
Experiment in all cases: relative viability (nuclei count vs DMSO), 5 days (fraction); higher = more cells survive
[1] = compound: CC1CC(=O)N(C2=CN=C(N=C2N1C3CCCC3)NC4=C(C=C(C=C4)C(=O)NC5CCN(CC5)C)OC)C [NPK76-II-72-1] + CC(=O)c1c(C)c2cnc(Nc3ccc(N4CCNCC4)cn3)nc2n(C2CCCC2)c1=O [Palbociclib] (partner 0.5 µM)
Outline: (§1)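 For relative viability, nuclei counts in treated wells were divided by those in vehicle wells. Lung cancer cell lines had been pin-tool dosed in 1536-well plates the day after seeding and cultured for 5 days, then fixed and stained in one step (final 0.05% Triton X-100, 1% formaldehyde, 1 ug/ml Hoechst) and imaged at 4×. Doses were one drug alone or a fixed anchor-drug dose plus five library-drug doses (not always all listed) in √10 steps, and values are duplicate-plate medians.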

[2] = compound: CC1CC(=O)N(C2=CN=C(N=C2N1C3CCCC3)NC4=C(C=C(C=C4)C(=O)NC5CCN(CC5)C)OC)C [NPK76-II-72-1] + Nc1nc2[nH]cc(CCc3ccc(C(=O)N[C@@H](CCC(=O)O)C(=O)O)cc3)c2c(=O)[nH]1 [Pemetrexed] (partner 0.2 µM)
Outline: as §1

BI-2536 + Decitabine = compound: CC[C@@H]1C(=O)N(C)c2cnc(Nc3ccc(C(=O)NC4CCN(C)CC4)cc3OC)nc2N1C1CCCC1 [BI-2536] + Nc1ncn([C@H]2C[C@H](O)[C@@H](CO)O2)c(=O)n1 [Decitabine] (partner 2 µM)
Outline: as §1

BI-2536 + Alpelisib = compound: CC[C@@H]1C(=O)N(C)c2cnc(Nc3ccc(C(=O)NC4CCN(C)CC4)cc3OC)nc2N1C1CCCC1 [BI-2536] + Cc1nc(NC(=O)N2CCC[C@H]2C(N)=O)sc1-c1ccnc(C(C)(C)C(F)(F)F)c1 [Alpelisib] (partner 2 µM)
Outline: as §1

Cell Line | relative viability ([1]; first compound 0.01 µM) | relative viability ([1]; first compound 0.03162 µM) | relative viability ([1]; first compound 0.1 µM) | relative viability ([1]; first compound 0.3162 µM) | relative viability ([1]; first compound 1 µM) | relative viability ([2]; first compound 0.01 µM) | relative viability ([2]; first compound 0.03162 µM) | relative viability ([2]; first compound 0.1 µM) | relative viability ([2]; first compound 0.3162 µM) | relative viability ([2]; first compound 1 µM) | relative viability (BI-2536 + Decitabine; first compound 0.01 µM) | relative viability (BI-2536 + Decitabine; first compound 0.03162 µM) | relative viability (BI-2536 + Decitabine; first compound 0.1 µM) | relative viability (BI-2536 + Decitabine; first compound 0.3162 µM) | relative viability (BI-2536 + Decitabine; first compound 1 µM) | relative viability (BI-2536 + Alpelisib; first compound 0.01 µM) | relative viability (BI-2536 + Alpelisib; first compound 0.03162 µM) | relative viability (BI-2536 + Alpelisib; first compound 0.1 µM) | relative viability (BI-2536 + Alpelisib; first compound 0.3162 µM) | relative viability (BI-2536 + Alpelisib; first compound 1 µM)
NCI-H1975 | 0.548 | 0.548 | 0.593 | 0.416 | 0.676 | 0.261 | 0.288 | 0.274 | 0.297 | 0.303 | 0.321 | 0.372 | 0.276 | 0.172 | 0.14 | 0.654 | 0.479 | 0.351 | 0.148 | 0.173
CAL-12T | 0.334 | 0.498 | 0.517 | 0.404 | 0.491 | 0.927 | 1.1 | 1.14 | 0.943 | 1.5 | – | – | – | – | – | 1.13 | 1.07 | 1.08 | 0.173 | 0.141
HCC-44 | 0.982 | 1.08 | 0.993 | 0.935 | 1.01 | 0.65 | 0.689 | 0.613 | 0.619 | 0.684 | 1.01 | 0.974 | 0.843 | 0.332 | 0.298 | 0.775 | 0.705 | 0.423 | 0.0667 | 0.0737
EKVX | 0.334 | 0.401 | 0.368 | – | 0.464 | 0.358 | 0.447 | 0.435 | – | 0.387 | 0.303 | 0.333 | 0.288 | 0.164 | 0.169 | 0.933 | 0.826 | 0.791 | 0.175 | 0.138
NCI-H1651 | 0.512 | 0.535 | 0.483 | 0.48 | 0.558 | 0.534 | 0.61 | 0.611 | 0.527 | 0.6 | 0.592 | 0.627 | 0.495 | 0.12 | 0.0817 | 0.93 | 0.828 | 0.558 | 0.0805 | 0.0804
NCI-H1944 | 0.335 | 0.35 | 0.305 | 0.301 | 0.376 | 0.564 | 0.665 | 0.664 | 0.571 | 0.734 | 0.454 | 0.444 | 0.399 | 0.168 | 0.192 | 0.895 | 0.892 | 0.679 | 0.192 | 0.164
NCI-H1703 | – | – | – | – | – | – | – | – | – | – | – | – | – | – | – | 0.347 | 0.247 | 0.279 | 0.0951 | 0.123
Calu-6 | – | – | – | – | – | – | – | – | – | – | – | – | – | – | – | 0.985 | 0.682 | 0.285 | 0.0989 | 0.126
EBC-1 | – | – | – | – | – | – | – | – | – | – | – | – | – | – | – | 0.852 | 0.799 | 0.564 | 0.175 | 0.179
SW 1573 | 0.35 | 0.486 | 0.399 | 0.371 | 0.387 | 0.751 | 0.829 | 0.821 | 0.849 | 0.824 | 0.473 | 0.257 | 0.095 | 0.0944 | 0.0866 | 0.821 | 0.842 | 0.791 | 0.162 | 0.123
A-427 | 0.494 | 0.537 | 0.529 | 0.532 | 0.565 | 0.903 | 0.991 | 0.978 | 0.965 | 1.01 | 0.555 | 0.539 | 0.469 | 0.204 | 0.185 | 1.11 | 1.04 | 1.03 | 0.381 | 0.136
NCI-H2347 | 0.388 | 0.425 | 0.389 | 0.433 | 0.465 | 0.502 | 0.42 | 0.417 | 0.403 | 0.354 | 0.595 | 0.736 | 0.589 | 0.506 | 0.414 | 1.03 | 0.923 | 0.89 | 0.448 | 0.497
NCI-H1355 | 0.377 | 0.427 | 0.397 | 0.383 | 0.439 | 1.02 | 1 | 0.99 | 0.972 | 1.06 | 0.357 | 0.369 | 0.342 | 0.148 | 0.154 | 0.701 | 0.797 | 0.753 | 0.226 | 0.17
NCI-H358 | 0.131 | 0.186 | 0.165 | – | 0.126 | 0.179 | 0.186 | 0.184 | – | 0.21 | 0.204 | 0.187 | 0.0935 | 0.0948 | 0.112 | 0.995 | 0.537 | 0.154 | 0.158 | 0.159
PC-3 [JPC-3] | 0.562 | – | 0.519 | 0.549 | 0.597 | 0.963 | – | 1.06 | 1.18 | 1.1 | 0.775 | 0.752 | 0.757 | 0.362 | 0.408 | 1.13 | 0.978 | 0.871 | 0.264 | 0.24
NCI-H2228 | 0.759 | 0.912 | 0.729 | 0.6 | 0.747 | 0.307 | 0.359 | 0.33 | 0.339 | 0.343 | – | – | – | – | – | 0.899 | 0.373 | 0.193 | 0.211 | 0.202
HOP-62 | 0.397 | 0.458 | 0.462 | 0.438 | 0.511 | 0.291 | 0.374 | 0.296 | 0.245 | 0.32 | 0.201 | 0.209 | 0.231 | 0.151 | 0.142 | 1.04 | 1.06 | 0.922 | 0.176 | 0.104
HARA | 0.27 | 0.267 | 0.254 | 0.21 | 0.295 | 0.293 | 0.28 | 0.256 | – | 0.195 | 0.529 | 0.521 | 0.433 | 0.162 | 0.191 | 1.03 | 0.927 | 0.843 | 0.062 | 0.0695
NCI-H838 | 0.209 | 0.2 | 0.217 | 0.228 | 0.228 | 0.277 | 0.251 | 0.263 | 0.237 | 0.245 | 0.445 | 0.413 | 0.185 | 0.151 | 0.142 | 0.967 | 1 | 0.661 | 0.124 | 0.144
